From ChEMBL document CHEMBL1201862, “PubChem BioAssay data set” (2004)
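Exposure lasted 48 hours, with cells grown in 96-well plates and compounds tested at five concentrations. GI50 marks 50% less growth.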 Calls of active or inactive are those of the source. Rule as the data show it: active = GI50 up to about 1.1 µM and inactive = higher.

Assays:
Test in all cases: inhibition of tumour cell growth, NCI panel, 48 h
[1] = test system: A498
[2] = test system: A549
[3] = test system: CAKI-1
[4] = test system: CCRF-CEM
[5] = test system: COLO 205
[6] = test system: DLD-1
[7] = test system: DMS-114
[8] = test system: DMS-273
[9] = test system: EKVX
[10] = test system: HCC 2998
[11] = test system: HCT-116
[12] = test system: HCT-15
[13] = test system: HL-60
[14] = test system: HOP-18
[15] = test system: HOP-62
[16] = test system: HOP-92
[17] = test system: HT-29
[18] = test system: IGROV-1
[19] = test system: K562
[20] = test system: KM12
[21] = test system: LOX IMVI
[22] = test system: M19-MEL
[23] = test system: MCF7
[24] = test system: MOLT-4
[25] = test system: Malme-3M
[26] = test system: NCI-H226
[27] = test system: NCI-H23
[28] = test system: NCI-H460
[29] = test system: NCI-H522
[30] = test system: NCI/ADR-RES
[31] = test system: OVCAR-3
[32] = test system: OVCAR-4
[33] = test system: OVCAR-5
[34] = test system: OVCAR-8
[35] = test system: RPMI-8226
[36] = test system: RXF 393
[37] = test system: SF-268
[38] = test system: SF-295
[39] = test system: SF-539
[40] = test system: SK-MEL-28
[41] = test system: SK-MEL-2
[42] = test system: SK-MEL-5
[43] = test system: SK-OV-3
[44] = test system: SN12C
[45] = test system: SNB-19
[46] = test system: SNB-75
[47] = test system: SNB-78
[48] = test system: SW-620
[49] = test system: U-251
[50] = test system: UACC-257
[51] = test system: UACC-62
[52] = test system: UO-31
[53] = test system: XF498
[54] = test system: KM-20L2
[55] = test system: 786-0
[56] = test system: ACHN
[57] = test system: LXFL 529
[58] = test system: M14
[59] = test system: TK-10

For `CC1(CO)C(O)CCC2(C)C1CCC1CC3CC12CCC3(O)CO` (centres undefined), the GI50 [1] was 7.6 µM (inactive), the GI50 [2] was 2.71 µM (inactive) and the GI50 [3] was 3.15 µM (inactive). The GI50 [4] was 2.84 µM (inactive), the GI50 [5] was > 100 µM (inactive) and the GI50 [6] was > 100 µM (inactive). For the same compound, the GI50 [7] was 2.34 µM (inactive), the GI50 [8] was 0.44 µM (active) and the GI50 [9] was > 64.6 µM (inactive). The GI50 [10] was 12.1 µM (inactive), the GI50 [11] was 2.39 µM (inactive) and the GI50 [12] was over 24.8 µM. For the same compound, the GI50 [13] was 0.433 µM (active), the GI50 [14] was 18.6 µM (inactive) and the GI50 [15] was 1.04 µM (active). For the same compound, the GI50 [16] was 24.8 µM (inactive), the GI50 [17] was 6.5 µM (inactive) and the GI50 [18] was > 100 µM (inactive). The GI50 [19] was 14 µM (inactive), the GI50 [20] was > 100 µM (inactive) and the GI50 [21] was 4.72 µM (inactive). For the same compound, the GI50 [22] was 26.2 µM (inactive), the GI50 [23] was 5.04 µM (inactive) and the GI50 [24] was 5.12 µM (inactive). For the same compound, the GI50 [25] was > 76.2 µM (inactive), the GI50 [26] was 21.2 µM (inactive) and the GI50 [27] was 4.91 µM (inactive). For the same compound, the GI50 [28] was 0.333 µM (active), the GI50 [29] was > 28.2 µM (inactive) and the GI50 [30] was 6.67 µM (inactive). The GI50 [31] was > 88.3 µM (inactive), the GI50 [32] was > 100 µM (inactive) and the GI50 [33] was > 36.9 µM (inactive). For the same compound, the GI50 [34] was 4.84 µM (inactive), the GI50 [35] was 2.31 µM (inactive) and the GI50 [36] was 20 µM (inactive). For the same compound, the GI50 [37] was 8.36 µM (inactive), the GI50 [38] was 2.19 µM (inactive) and the GI50 [39] was 2.9 µM (inactive). The GI50 [40] was > 100 µM (inactive), the GI50 [41] was > 100 µM (inactive) and the GI50 [42] was 5.83 µM (inactive). The GI50 [43] was > 100 µM (inactive), the GI50 [44] was 16.7 µM (inactive) and the GI50 [45] was > 79.1 µM (inactive). For the same compound, the GI50 [46] was > 51.8 µM (inactive), the GI50 [47] was > 100 µM (inactive) and the GI50 [48] was 9.75 µM (inactive). For the same compound, the GI50 [49] was 4.53 µM (inactive), the GI50 [50] was > 81.3 µM (inactive) and the GI50 [51] was 0.789 µM (active). For the same compound, the GI50 [52] was 25.3 µM (inactive) and the GI50 [53] was 64.7 µM (inactive).
For `CC1(C)S[C@@H]2[C@H](NC(=O)CCC[C@@H](N)C(=O)O)C(=O)N2[C@H]1C(=O)O` [ADICILLIN], the GI50 [1] was > 44.7 µM (inactive), the GI50 [2] was > 50 µM (inactive) and the GI50 [3] was > 50 µM (inactive). For the same compound, the GI50 [4] was > 50 µM (inactive), the GI50 [5] was > 50 µM (inactive) and the GI50 [6] was > 50 µM (inactive). The GI50 [8] was > 50 µM (inactive), the GI50 [9] was > 50 µM (inactive) and the GI50 [10] was > 50 µM (inactive). For the same compound, the GI50 [11] was > 50 µM (inactive), the GI50 [12] was over 50 µM and the GI50 [13] was > 50 µM (inactive). For the same compound, the GI50 [14] was > 50 µM (inactive), the GI50 [15] was > 50 µM (inactive) and the GI50 [16] was > 50 µM (inactive). The GI50 [17] was > 50 µM (inactive), the GI50 [18] was > 50 µM (inactive) and the GI50 [19] was > 50 µM (inactive). For the same compound, the GI50 [54] was > 24.8 µM (inactive), the GI50 [20] was > 50 µM (inactive) and the GI50 [21] was > 50 µM (inactive). The GI50 [22] was > 50 µM (inactive), the GI50 [23] was > 50 µM (inactive) and the GI50 [24] was > 50 µM (inactive). The GI50 [25] was > 50 µM (inactive), the GI50 [26] was > 50 µM (inactive) and the GI50 [27] was > 50 µM (inactive). For the same compound, the GI50 [28] was > 50 µM (inactive), the GI50 [29] was > 50 µM (inactive) and the GI50 [30] was > 31.6 µM (inactive). For the same compound, the GI50 [31] was > 50 µM (inactive), the GI50 [32] was > 50 µM (inactive) and the GI50 [33] was 23.3 µM (inactive). For the same compound, the GI50 [34] was > 19.9 µM (inactive), the GI50 [35] was > 50 µM (inactive) and the GI50 [36] was > 50 µM (inactive). The GI50 [37] was > 50 µM (inactive), the GI50 [38] was > 50 µM (inactive) and the GI50 [39] was > 50 µM (inactive). For the same compound, the GI50 [40] was > 50 µM (inactive), the GI50 [41] was > 50 µM (inactive) and the GI50 [42] was > 15 µM (inactive). For the same compound, the GI50 [43] was > 41 µM (inactive), the GI50 [44] was > 50 µM (inactive) and the GI50 [45] was > 50 µM (inactive). For the same compound, the GI50 [46] was > 50 µM (inactive), the GI50 [47] was > 50 µM (inactive) and the GI50 [48] was > 31.6 µM (inactive). For the same compound, the GI50 [49] was > 25.6 µM (inactive), the GI50 [50] was > 50 µM (inactive) and the GI50 [51] was > 50 µM (inactive). For the same compound, the GI50 [52] was > 50 µM (inactive) and the GI50 [53] was 24.1 µM (inactive).
With `COc1ccc(NC(=O)CSc2nnc(Cc3ccccc3)o2)cc1` the GI50 [55] was > 100 µM (inactive), the GI50 [1] was > 100 µM (inactive) and the GI50 [2] was > 100 µM (inactive). For the same compound, the GI50 [56] was > 100 µM (inactive), the GI50 [3] was > 100 µM (inactive) and the GI50 [4] was 82.2 µM (inactive). For the same compound, the GI50 [5] was 94.8 µM (inactive), the GI50 [6] was > 100 µM (inactive) and the GI50 [7] was 17.9 µM (inactive). The GI50 [8] was > 100 µM (inactive), the GI50 [10] was > 100 µM (inactive) and the GI50 [11] was > 100 µM (inactive). For the same compound, the GI50 [12] was over 100 µM, the GI50 [14] was > 100 µM (inactive) and the GI50 [15] was > 100 µM (inactive). For the same compound, the GI50 [17] was 74.1 µM (inactive), the GI50 [18] was > 100 µM (inactive) and the GI50 [19] was > 100 µM (inactive). For the same compound, the GI50 [54] was > 100 µM (inactive), the GI50 [20] was > 100 µM (inactive) and the GI50 [21] was 53.5 µM (inactive). For the same compound, the GI50 [57] was > 100 µM (inactive), the GI50 [58] was > 100 µM (inactive) and the GI50 [22] was 82.6 µM (inactive). For the same compound, the GI50 [24] was > 100 µM (inactive), the GI50 [25] was > 100 µM (inactive) and the GI50 [26] was > 100 µM (inactive). The GI50 [27] was 61.5 µM (inactive), the GI50 [28] was > 100 µM (inactive) and the GI50 [29] was 53.7 µM (inactive). The GI50 [31] was 78.3 µM (inactive), the GI50 [32] was > 100 µM (inactive) and the GI50 [33] was > 100 µM (inactive). The GI50 [34] was > 100 µM (inactive), the GI50 [35] was 41.4 µM (inactive) and the GI50 [36] was > 100 µM (inactive). For the same compound, the GI50 [37] was 88.1 µM (inactive), the GI50 [38] was 55.6 µM (inactive) and the GI50 [39] was > 100 µM (inactive). For the same compound, the GI50 [40] was > 100 µM (inactive), the GI50 [41] was > 100 µM (inactive) and the GI50 [42] was 85.1 µM (inactive). For the same compound, the GI50 [43] was > 100 µM (inactive), the GI50 [44] was > 100 µM (inactive) and the GI50 [45] was 97.7 µM (inactive). The GI50 [46] was > 100 µM (inactive), the GI50 [47] was > 100 µM (inactive) and the GI50 [48] was > 100 µM (inactive). The GI50 [59] was > 100 µM (inactive), the GI50 [49] was 34.5 µM (inactive) and the GI50 [50] was > 100 µM (inactive). For the same compound, the GI50 [51] was > 100 µM (inactive) and the GI50 [52] was > 100 µM (inactive).
